Assay results published in ChEMBL document CHEMBL5696441 (Nat Chem Biol, 2011).

Assays:
[1] = target: Casein kinase II subunit alpha (Homo sapiens) (UniProt P68400); assay: Inhibition of human CK2alpha1 assessed as residual activity at 1 uM using casein as substrate in presence of 33P-ATP by ProQinase assay relative to control
[2] = target: Ephrin type-A receptor 4 (Homo sapiens) (UniProt P54764); assay: Inhibition of human EPHA4 assessed as residual activity at 1 uM using polyEY as substrate in presence of 33P-ATP by ProQinase assay relative to control
[3] = target: T1, Muscle, skeletal receptor tyrosine-protein kinase (Homo sapiens) (UniProt O15146); assay: Inhibition of human MUSK assessed as residual activity at 1 uM using Poly(Ala,Glu,Lys,Tyr)6:2:5:1 as substrate in presence of 33P-ATP by ProQinase assay relative to control
T1 sequence (whole entry): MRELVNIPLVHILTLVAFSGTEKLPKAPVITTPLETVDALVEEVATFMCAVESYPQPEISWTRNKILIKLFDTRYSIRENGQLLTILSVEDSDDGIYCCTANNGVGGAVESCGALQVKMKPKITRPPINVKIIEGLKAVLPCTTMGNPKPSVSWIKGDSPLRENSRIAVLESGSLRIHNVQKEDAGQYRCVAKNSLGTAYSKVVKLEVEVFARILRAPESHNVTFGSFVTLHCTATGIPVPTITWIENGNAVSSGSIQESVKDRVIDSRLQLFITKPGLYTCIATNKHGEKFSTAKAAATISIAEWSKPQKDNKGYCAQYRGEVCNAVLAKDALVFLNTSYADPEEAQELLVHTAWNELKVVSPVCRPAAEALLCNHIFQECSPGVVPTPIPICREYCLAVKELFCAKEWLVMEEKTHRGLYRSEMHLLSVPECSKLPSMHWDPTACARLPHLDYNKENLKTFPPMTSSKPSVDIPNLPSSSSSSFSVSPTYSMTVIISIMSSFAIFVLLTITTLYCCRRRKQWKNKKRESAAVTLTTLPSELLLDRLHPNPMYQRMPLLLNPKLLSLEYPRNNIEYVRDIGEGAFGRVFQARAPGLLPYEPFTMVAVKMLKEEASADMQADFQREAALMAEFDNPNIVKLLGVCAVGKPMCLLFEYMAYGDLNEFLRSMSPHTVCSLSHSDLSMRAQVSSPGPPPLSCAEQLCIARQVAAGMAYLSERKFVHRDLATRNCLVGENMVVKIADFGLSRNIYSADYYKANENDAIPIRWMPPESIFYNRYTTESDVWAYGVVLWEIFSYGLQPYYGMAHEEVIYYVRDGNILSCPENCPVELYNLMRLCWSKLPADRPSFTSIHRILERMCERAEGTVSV

[4] = target: Protein-tyrosine kinase 6 (Homo sapiens) (UniProt Q13882); assay: Inhibition of human BRK assessed as residual activity at 1 uM using PolyEY as substrate in presence of 33P-ATP by ProQinase assay relative to control
[5] = target: G protein-coupled receptor kinase 4 (Homo sapiens) (UniProt P32298); assay: Inhibition of GRK4 (unknown origin) assessed as remaining activity at 1 uM by Kinome scan method relative to control
[6] = target: T2, Mitogen-activated protein kinase kinase kinase kinase 2 (Homo sapiens) (UniProt Q12851); assay: Inhibition of human MAP4K2 assessed as residual activity at 1 uM using 3xChocktide-PKC as substrate in presence of 33P-ATP by ProQinase assay relative to control
T2 sequence (whole entry): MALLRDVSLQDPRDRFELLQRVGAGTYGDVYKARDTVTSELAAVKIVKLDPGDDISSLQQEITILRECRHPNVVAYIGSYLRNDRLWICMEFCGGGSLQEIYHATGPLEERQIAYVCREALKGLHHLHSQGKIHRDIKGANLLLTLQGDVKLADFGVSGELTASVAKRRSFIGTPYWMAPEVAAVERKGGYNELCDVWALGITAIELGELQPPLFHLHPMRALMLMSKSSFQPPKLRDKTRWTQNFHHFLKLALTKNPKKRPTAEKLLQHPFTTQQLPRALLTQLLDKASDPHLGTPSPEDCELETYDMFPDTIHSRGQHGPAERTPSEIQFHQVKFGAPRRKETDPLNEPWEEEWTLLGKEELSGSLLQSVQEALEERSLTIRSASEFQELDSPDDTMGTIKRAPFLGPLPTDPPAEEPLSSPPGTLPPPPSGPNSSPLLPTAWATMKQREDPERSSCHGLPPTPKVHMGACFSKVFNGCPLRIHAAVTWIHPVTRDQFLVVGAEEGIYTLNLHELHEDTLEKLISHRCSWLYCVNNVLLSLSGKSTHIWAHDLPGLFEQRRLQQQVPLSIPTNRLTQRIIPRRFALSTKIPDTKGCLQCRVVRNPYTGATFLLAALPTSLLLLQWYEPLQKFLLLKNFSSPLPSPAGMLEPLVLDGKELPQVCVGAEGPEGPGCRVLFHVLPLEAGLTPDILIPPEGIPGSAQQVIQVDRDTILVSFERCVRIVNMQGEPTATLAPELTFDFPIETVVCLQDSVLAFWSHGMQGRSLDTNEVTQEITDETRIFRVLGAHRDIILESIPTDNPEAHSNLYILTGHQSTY

[7] = tested on: Dual specificity mitogen-activated protein kinase kinase 6 (Homo sapiens), P52564 [S207D,T211D]; assay: Inhibition of human MKK6 S207D/T211D double mutant assessed as residual activity at 1 uM using p38-alpha KA as substrate in presence of 33P-ATP by ProQinase assay relative to control
[8] = target: Proto-oncogene tyrosine-protein kinase ROS (Homo sapiens) (UniProt P08922); assay: Inhibition of ROS1 (unknown origin) assessed as remaining activity at 1 uM by Kinome scan method relative to control
[9] = target: Serine/threonine-protein kinase Nek11 (Homo sapiens) (UniProt Q8NG66); assay: Inhibition of human NEK11 assessed as residual activity at 1 uM using MBP as substrate in presence of 33P-ATP by ProQinase assay relative to control
[10] = target: MAP kinase-activated protein kinase 3 (Homo sapiens) (UniProt Q16644); assay: Inhibition of human MAPKAPK3 assessed as residual activity at 1 uM using bio-4xCHKT as substrate in presence of 33P-ATP by ProQinase assay relative to control
[11] = target: Serine/threonine-protein kinase N1 (Homo sapiens) (UniProt Q16512); assay: Inhibition of PKN1 (unknown origin) assessed as remaining activity at 1 uM by Kinome scan method relative to control
[12] = target: Protein kinase C theta type (Homo sapiens) (UniProt Q04759); assay: Inhibition of human PKCtheta assessed as residual activity at 1 uM using 3xChocktide-PKC(19-31) as substrate in presence of 33P-ATP by ProQinase assay relative to control
[13] = target: Phosphatidylinositol 4-phosphate 3-kinase C2 domain-containing subunit beta (Homo sapiens) (UniProt O00750); assay: Inhibition of PIK3C2B (unknown origin) assessed as remaining activity at 1 uM by Kinome scan method relative to control
Sequence of Phosphatidylinositol 4-phosphate 3-kinase C2 domain-containing subunit beta (Homo sapiens) (O00750 whole entry, the tested form may be a part): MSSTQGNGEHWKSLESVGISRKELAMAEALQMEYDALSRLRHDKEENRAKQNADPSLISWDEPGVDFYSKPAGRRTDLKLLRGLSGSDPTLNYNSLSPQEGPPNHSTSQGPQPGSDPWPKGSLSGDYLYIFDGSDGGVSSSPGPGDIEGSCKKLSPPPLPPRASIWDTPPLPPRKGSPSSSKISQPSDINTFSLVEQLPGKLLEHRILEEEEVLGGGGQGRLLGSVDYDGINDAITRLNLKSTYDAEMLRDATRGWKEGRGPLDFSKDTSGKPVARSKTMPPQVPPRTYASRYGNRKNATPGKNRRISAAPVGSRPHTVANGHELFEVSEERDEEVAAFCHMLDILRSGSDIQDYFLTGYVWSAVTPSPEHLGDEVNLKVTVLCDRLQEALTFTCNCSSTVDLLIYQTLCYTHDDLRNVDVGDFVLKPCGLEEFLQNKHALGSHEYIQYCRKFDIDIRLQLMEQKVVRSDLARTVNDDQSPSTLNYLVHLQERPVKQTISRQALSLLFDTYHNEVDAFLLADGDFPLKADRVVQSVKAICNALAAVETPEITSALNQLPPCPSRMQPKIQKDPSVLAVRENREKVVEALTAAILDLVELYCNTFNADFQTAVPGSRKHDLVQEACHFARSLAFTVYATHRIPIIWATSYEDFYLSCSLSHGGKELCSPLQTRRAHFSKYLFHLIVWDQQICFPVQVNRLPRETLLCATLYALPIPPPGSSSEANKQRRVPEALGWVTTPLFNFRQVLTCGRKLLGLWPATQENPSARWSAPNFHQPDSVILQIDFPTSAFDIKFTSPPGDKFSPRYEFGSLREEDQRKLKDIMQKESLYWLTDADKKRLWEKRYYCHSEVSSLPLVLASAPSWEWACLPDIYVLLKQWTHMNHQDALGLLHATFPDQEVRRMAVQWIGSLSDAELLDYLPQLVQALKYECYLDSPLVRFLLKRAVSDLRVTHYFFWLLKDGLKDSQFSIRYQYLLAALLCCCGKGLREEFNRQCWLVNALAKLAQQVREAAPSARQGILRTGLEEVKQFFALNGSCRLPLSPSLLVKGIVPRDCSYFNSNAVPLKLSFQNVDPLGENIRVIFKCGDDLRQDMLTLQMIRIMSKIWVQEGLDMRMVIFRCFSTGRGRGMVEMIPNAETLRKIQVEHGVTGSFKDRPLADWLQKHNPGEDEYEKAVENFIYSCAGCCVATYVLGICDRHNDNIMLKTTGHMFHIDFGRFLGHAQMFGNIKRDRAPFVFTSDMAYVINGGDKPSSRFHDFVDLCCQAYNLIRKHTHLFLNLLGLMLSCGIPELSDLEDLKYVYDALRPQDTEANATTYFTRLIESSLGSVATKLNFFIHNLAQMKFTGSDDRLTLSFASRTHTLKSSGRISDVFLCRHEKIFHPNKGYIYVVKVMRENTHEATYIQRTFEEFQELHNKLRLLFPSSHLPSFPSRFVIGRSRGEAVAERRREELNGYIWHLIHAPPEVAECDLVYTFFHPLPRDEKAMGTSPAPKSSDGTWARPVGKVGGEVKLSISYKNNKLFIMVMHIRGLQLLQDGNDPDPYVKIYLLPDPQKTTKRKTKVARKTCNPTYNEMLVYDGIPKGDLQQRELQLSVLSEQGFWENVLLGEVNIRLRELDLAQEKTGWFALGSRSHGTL

Sequence of Dual specificity mitogen-activated protein kinase kinase 6 (Homo sapiens), P52564 [S207D,T211D] (P52564 whole entry S207D/T211D): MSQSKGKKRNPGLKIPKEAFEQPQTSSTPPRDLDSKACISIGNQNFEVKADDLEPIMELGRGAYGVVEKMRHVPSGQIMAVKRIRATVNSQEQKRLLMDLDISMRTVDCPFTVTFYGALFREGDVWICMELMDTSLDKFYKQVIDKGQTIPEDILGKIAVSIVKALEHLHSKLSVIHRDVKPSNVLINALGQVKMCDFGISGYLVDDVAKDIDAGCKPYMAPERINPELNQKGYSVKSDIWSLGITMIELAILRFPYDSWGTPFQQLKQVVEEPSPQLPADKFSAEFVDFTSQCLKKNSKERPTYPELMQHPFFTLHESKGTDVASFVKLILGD
Sequence of Protein-tyrosine kinase 6 (Homo sapiens) (Q13882 whole entry, looked up): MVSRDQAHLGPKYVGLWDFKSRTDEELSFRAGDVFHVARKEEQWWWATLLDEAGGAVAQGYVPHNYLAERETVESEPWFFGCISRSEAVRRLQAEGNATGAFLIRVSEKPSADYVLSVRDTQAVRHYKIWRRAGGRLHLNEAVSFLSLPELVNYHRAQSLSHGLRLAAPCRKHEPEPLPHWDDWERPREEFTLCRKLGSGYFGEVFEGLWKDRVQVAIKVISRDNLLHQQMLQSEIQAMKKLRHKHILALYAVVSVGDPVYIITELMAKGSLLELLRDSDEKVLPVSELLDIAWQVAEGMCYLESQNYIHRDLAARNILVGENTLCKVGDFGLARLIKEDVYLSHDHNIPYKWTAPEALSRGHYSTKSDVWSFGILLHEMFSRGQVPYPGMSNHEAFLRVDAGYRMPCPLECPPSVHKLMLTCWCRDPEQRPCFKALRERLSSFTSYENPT
Sequence of Serine/threonine-protein kinase N1 (Homo sapiens) (Q16512 2-942 limits assumed): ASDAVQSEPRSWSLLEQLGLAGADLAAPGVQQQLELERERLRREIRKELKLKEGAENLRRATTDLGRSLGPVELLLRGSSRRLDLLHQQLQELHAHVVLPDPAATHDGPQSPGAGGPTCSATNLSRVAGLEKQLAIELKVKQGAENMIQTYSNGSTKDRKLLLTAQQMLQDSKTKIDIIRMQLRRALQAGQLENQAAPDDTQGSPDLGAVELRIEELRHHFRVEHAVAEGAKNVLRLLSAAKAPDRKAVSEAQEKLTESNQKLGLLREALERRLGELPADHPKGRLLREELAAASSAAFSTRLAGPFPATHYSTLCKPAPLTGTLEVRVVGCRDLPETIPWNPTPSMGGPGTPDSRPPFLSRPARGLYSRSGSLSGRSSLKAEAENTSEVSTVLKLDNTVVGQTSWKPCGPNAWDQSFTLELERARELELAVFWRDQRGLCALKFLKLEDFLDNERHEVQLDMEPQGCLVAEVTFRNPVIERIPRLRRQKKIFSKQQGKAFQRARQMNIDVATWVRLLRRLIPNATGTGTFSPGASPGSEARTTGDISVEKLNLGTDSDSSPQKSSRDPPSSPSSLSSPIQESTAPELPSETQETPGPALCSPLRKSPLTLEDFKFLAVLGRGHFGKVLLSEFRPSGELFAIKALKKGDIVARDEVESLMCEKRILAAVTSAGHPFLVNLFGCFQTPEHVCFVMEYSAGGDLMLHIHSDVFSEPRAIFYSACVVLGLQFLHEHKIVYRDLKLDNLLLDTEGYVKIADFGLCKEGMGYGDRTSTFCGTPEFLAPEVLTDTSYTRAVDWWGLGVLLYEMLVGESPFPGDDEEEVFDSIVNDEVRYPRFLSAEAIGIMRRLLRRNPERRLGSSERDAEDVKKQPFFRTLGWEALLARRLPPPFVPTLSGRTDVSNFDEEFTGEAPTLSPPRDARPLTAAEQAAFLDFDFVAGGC
Sequence of Ephrin type-A receptor 4 (Homo sapiens) (P54764 whole entry): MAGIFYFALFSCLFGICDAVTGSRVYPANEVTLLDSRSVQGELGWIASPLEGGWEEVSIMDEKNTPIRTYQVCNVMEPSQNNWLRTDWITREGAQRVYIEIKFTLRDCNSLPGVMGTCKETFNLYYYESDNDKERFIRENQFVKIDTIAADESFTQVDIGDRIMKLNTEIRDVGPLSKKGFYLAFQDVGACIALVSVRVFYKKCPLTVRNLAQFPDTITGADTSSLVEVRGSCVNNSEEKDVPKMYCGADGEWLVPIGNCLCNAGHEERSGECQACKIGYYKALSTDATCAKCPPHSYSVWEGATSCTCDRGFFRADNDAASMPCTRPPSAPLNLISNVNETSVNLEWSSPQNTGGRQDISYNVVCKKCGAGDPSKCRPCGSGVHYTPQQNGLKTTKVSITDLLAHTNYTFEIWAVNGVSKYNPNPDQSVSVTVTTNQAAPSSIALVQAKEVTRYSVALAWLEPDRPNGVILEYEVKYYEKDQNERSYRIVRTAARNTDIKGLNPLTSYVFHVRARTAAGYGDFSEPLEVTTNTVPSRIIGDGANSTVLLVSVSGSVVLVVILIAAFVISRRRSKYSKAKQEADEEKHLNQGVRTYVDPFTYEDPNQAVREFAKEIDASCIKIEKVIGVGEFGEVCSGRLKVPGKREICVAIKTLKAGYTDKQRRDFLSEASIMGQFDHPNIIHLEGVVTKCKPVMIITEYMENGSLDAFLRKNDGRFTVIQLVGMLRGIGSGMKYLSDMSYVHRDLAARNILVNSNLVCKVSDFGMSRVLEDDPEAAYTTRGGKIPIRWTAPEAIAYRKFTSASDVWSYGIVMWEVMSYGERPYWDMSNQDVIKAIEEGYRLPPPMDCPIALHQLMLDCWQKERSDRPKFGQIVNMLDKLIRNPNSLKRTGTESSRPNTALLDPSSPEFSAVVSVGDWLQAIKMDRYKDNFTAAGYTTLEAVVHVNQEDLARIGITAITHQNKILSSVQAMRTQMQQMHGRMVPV
Sequence of G protein-coupled receptor kinase 4 (Homo sapiens) (P32298 whole entry, looked up): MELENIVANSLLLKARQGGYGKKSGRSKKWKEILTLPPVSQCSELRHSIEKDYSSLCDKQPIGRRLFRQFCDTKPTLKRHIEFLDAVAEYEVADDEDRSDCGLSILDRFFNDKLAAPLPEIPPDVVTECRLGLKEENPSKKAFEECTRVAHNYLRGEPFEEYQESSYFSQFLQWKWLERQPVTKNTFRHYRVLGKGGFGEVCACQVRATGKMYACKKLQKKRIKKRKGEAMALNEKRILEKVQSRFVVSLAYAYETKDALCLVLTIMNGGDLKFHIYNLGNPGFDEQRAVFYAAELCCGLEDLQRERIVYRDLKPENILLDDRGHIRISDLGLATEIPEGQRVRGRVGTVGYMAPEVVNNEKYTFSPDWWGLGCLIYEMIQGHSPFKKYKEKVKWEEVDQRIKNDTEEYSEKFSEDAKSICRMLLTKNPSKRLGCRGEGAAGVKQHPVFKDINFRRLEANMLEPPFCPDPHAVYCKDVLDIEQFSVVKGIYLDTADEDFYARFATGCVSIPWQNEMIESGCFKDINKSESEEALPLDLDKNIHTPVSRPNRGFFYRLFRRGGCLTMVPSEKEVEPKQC

Compound `O=C1c2ccc(Nc3ccc(F)cc3F)cc2CCc2ccc(OC[C@H](O)CO)cc21` [Skepinone-L] has an Activity [1] of 95%, an Activity [2] of 93% and an Activity [3] of 106%. The Activity [4] was 84%, the Activity [5] was 100% and the Activity [6] was 89%. The Activity [7] was 120%, the Activity [8] was 99% and the Activity [9] was 113%. For the same compound, the Activity [10] was 95%, the Activity [11] was 91% and the Activity [12] was 99%. It also gave an Activity [13] of 100%.
